Legend:
Experiment in all cases: relative viability (nuclei count vs DMSO), 5 days (fraction); higher = more cells survive
[1] = tested on: BEN
Summary of the method: (§1)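 Medians of duplicate plates are given as relative viability. That measure is the nuclei count in treated wells divided by the count in vehicle wells. Counts were taken on 4× images of lung cancer cell lines in 1536-well plates, 5 days after pin-tool dosing the day after seeding with one drug alone or a fixed anchor-drug dose plus five library-drug doses (not always all listed) in √10 steps.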

[2] = tested on: CAL-12T
Summary of the method: as §1

[3] = tested on: EKVX
Summary of the method: as §1

[4] = tested on: HCC-44
Summary of the method: as §1

[5] = tested on: LOU-NH91
Summary of the method: as §1

[6] = tested on: LU99A
Summary of the method: as §1

[7] = tested on: NCI-H1355
Summary of the method: as §1

[8] = tested on: NCI-H1395
Summary of the method: as §1

[9] = tested on: NCI-H1437
Summary of the method: as §1

[10] = tested on: NCI-H1563
Summary of the method: as §1

[11] = tested on: NCI-H1650
Summary of the method: as §1

[12] = tested on: NCI-H1651
Summary of the method: as §1

[13] = tested on: NCI-H1734
Summary of the method: as §1

[14] = tested on: NCI-H1755
Summary of the method: as §1

[15] = tested on: NCI-H1975
Summary of the method: as §1

[16] = tested on: NCI-H2023
Summary of the method: as §1

[17] = tested on: NCI-H2085
Summary of the method: as §1

[18] = tested on: NCI-H2342
Summary of the method: as §1

[19] = tested on: NCI-H358
Summary of the method: as §1

[20] = tested on: NCI-H441
Summary of the method: as §1

[21] = tested on: NCI-H460
Summary of the method: as §1

[22] = tested on: NCI-H838
Summary of the method: as §1

CC1(C)CCC(c2ccc(Cl)cc2)=C(CN2CCN(c3ccc(C(=O)NS(=O)(=O)c4ccc(N[C@H](CCN5CCOCC5)CSc5ccccc5)c(S(=O)(=O)C(F)(F)F)c4)cc3)CC2)C1 [Navitoclax] + CCNC(=O)c1noc(-c2cc(C(C)C)c(O)cc2O)c1-c1ccc(CN2CCOCC2)cc1 [Luminespib] (partner 0.01 µM)
relative viability ([1]; first compound 0.005 µM): 0.269 | relative viability ([1]; first compound 0.01581 µM): 0.271 | relative viability ([1]; first compound 0.05 µM): 0.22 | relative viability ([1]; first compound 0.1581 µM): 0.266 | relative viability ([1]; first compound 0.5 µM): 0.0778 | relative viability ([2]; first compound 0.005 µM): 0.308 | relative viability ([2]; first compound 0.01581 µM): 0.563 | relative viability ([2]; first compound 0.05 µM): 0.708 | relative viability ([2]; first compound 0.1581 µM): 0.826 | relative viability ([2]; first compound 0.5 µM): 0.251 | relative viability ([3]; first compound 0.005 µM): 0.94 | relative viability ([3]; first compound 0.01581 µM): 1.01 | relative viability ([3]; first compound 0.05 µM): 0.663 | relative viability ([3]; first compound 0.1581 µM): 0.784 | relative viability ([3]; first compound 0.5 µM): 0.785 | relative viability ([4]; first compound 0.05 µM): 1.33 | relative viability ([4]; first compound 0.5 µM): 0.823 | relative viability ([5]; first compound 0.005 µM): 0.349 | relative viability ([5]; first compound 0.01581 µM): 0.362 | relative viability ([5]; first compound 0.05 µM): 0.327 | relative viability ([5]; first compound 0.1581 µM): 0.321 | relative viability ([5]; first compound 0.5 µM): 0.275 | relative viability ([6]; first compound 0.005 µM): 0.221 | relative viability ([6]; first compound 0.01581 µM): 0.217 | relative viability ([6]; first compound 0.05 µM): 0.154 | relative viability ([6]; first compound 0.1581 µM): 0.168 | relative viability ([6]; first compound 0.5 µM): 0.274 | relative viability ([7]; first compound 0.005 µM): 0.725 | relative viability ([7]; first compound 0.01581 µM): 0.845 | relative viability ([7]; first compound 0.05 µM): 0.674 | relative viability ([7]; first compound 0.1581 µM): 0.668 | relative viability ([7]; first compound 0.5 µM): 0.742 | relative viability ([8]; first compound 0.005 µM): 0.741 | relative viability ([8]; first compound 0.01581 µM): 0.836 | relative viability ([8]; first compound 0.05 µM): 0.714 | relative viability ([8]; first compound 0.1581 µM): 0.577 | relative viability ([8]; first compound 0.5 µM): 0.793 | relative viability ([9]; first compound 0.005 µM): 1.12 | relative viability ([9]; first compound 0.01581 µM): 1.1 | relative viability ([9]; first compound 0.05 µM): 1.09 | relative viability ([9]; first compound 0.1581 µM): 1.14 | relative viability ([9]; first compound 0.5 µM): 1.01 | relative viability ([10]; first compound 0.005 µM): 0.53 | relative viability ([10]; first compound 0.01581 µM): 0.507 | relative viability ([10]; first compound 0.05 µM): 0.485 | relative viability ([10]; first compound 0.1581 µM): 0.557 | relative viability ([10]; first compound 0.5 µM): 0.475 | relative viability ([11]; first compound 0.005 µM): 0.214 | relative viability ([11]; first compound 0.01581 µM): 0.21 | relative viability ([11]; first compound 0.05 µM): 0.167 | relative viability ([11]; first compound 0.1581 µM): 0.206 | relative viability ([11]; first compound 0.5 µM): 0.192 | relative viability ([12]; first compound 0.005 µM): 0.966 | relative viability ([12]; first compound 0.01581 µM): 0.971 | relative viability ([12]; first compound 0.05 µM): 0.563 | relative viability ([12]; first compound 0.1581 µM): 0.809 | relative viability ([12]; first compound 0.5 µM): 0.712 | relative viability ([13]; first compound 0.005 µM): 0.174 | relative viability ([13]; first compound 0.01581 µM): 0.191 | relative viability ([13]; first compound 0.1581 µM): 0.182 | relative viability ([13]; first compound 0.5 µM): 0.16 | relative viability ([14]; first compound 0.005 µM): 0.381 | relative viability ([14]; first compound 0.01581 µM): 0.393 | relative viability ([14]; first compound 0.05 µM): 0.332 | relative viability ([14]; first compound 0.1581 µM): 0.173 | relative viability ([14]; first compound 0.5 µM): 0.426 | relative viability ([15]; first compound 0.005 µM): 0.24 | relative viability ([15]; first compound 0.01581 µM): 0.309 | relative viability ([15]; first compound 0.05 µM): 0.191 | relative viability ([15]; first compound 0.1581 µM): 0.118 | relative viability ([15]; first compound 0.5 µM): 0.132 | relative viability ([16]; first compound 0.005 µM): 0.782 | relative viability ([16]; first compound 0.01581 µM): 0.921 | relative viability ([16]; first compound 0.05 µM): 0.83 | relative viability ([16]; first compound 0.1581 µM): 0.568 | relative viability ([16]; first compound 0.5 µM): 0.594 | relative viability ([17]; first compound 0.005 µM): 0.488 | relative viability ([17]; first compound 0.01581 µM): 0.538 | relative viability ([17]; first compound 0.05 µM): 0.484 | relative viability ([17]; first compound 0.1581 µM): 0.46 | relative viability ([17]; first compound 0.5 µM): 0.383 | relative viability ([18]; first compound 0.005 µM): 0.683 | relative viability ([18]; first compound 0.01581 µM): 0.747 | relative viability ([18]; first compound 0.05 µM): 0.476 | relative viability ([18]; first compound 0.1581 µM): 0.723 | relative viability ([18]; first compound 0.5 µM): 0.683 | relative viability ([19]; first compound 0.005 µM): 0.418 | relative viability ([19]; first compound 0.01581 µM): 0.325 | relative viability ([19]; first compound 0.05 µM): 0.264 | relative viability ([19]; first compound 0.1581 µM): 0.388 | relative viability ([19]; first compound 0.5 µM): 0.242 | relative viability ([20]; first compound 0.005 µM): 0.294 | relative viability ([20]; first compound 0.01581 µM): 0.288 | relative viability ([20]; first compound 0.05 µM): 0.42 | relative viability ([20]; first compound 0.1581 µM): 0.351 | relative viability ([20]; first compound 0.5 µM): 0.336 | relative viability ([21]; first compound 0.005 µM): 0.0372 | relative viability ([21]; first compound 0.01581 µM): 0.0368 | relative viability ([21]; first compound 0.05 µM): 0.0365 | relative viability ([21]; first compound 0.1581 µM): 0.0311 | relative viability ([21]; first compound 0.5 µM): 0.033 | relative viability ([22]; first compound 0.005 µM): 0.344 | relative viability ([22]; first compound 0.01581 µM): 0.438 | relative viability ([22]; first compound 0.05 µM): 0.37 | relative viability ([22]; first compound 0.1581 µM): 0.17 | relative viability ([22]; first compound 0.5 µM): 0.239
